Experimental findings from ChEMBL document CHEMBL1201862, “PubChem BioAssay data set” (2004) are described below.

Among the test systems are SNB-19; MOLT-4; SN12C; UACC-257; NCI-H23; NCI-H460; SF-268; HOP-92; EKVX; SF-295; CCRF-CEM; HCC 2998; OVCAR-4; SNB-75; UACC-62; TK-10; SK-OV-3; OVCAR-3; U-251; OVCAR-8.
Assay in all cases: growth of human tumour cells (NCI), 48 h

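Growth conditions: 96-well plates. Treatment: test compound, 48 hours, 5 concentrations. Analysis: linear interpolation between bracketing concentrations; unreached endpoints set to highest concentration. Here, GI50 denotes the concentration required for 50% inhibition of growth.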 Active and inactive are the calls of the source. Rule as the data show it: active = GI50 up to about 1.1 µM and inactive = higher.

`O=c1ccc2nc3cc(Br)ccc3sc-2c1`: the GI50 in the assay on SNB-19 is > 100 µM (inactive); in the assay with MOLT-4 it was 21.7 µM (inactive); in the assay on SN12C, > 100 µM (inactive); in the assay with UACC-257, > 100 µM (inactive); with NCI-H23, > 100 µM (inactive); in the assay on NCI-H460, > 100 µM (inactive). Also, the GI50 in the assay with SF-268 is > 100 µM (inactive); in the assay on HOP-92 it was > 100 µM (inactive); with EKVX, > 100 µM (inactive); in the assay with SF-295 it was > 100 µM (inactive); in the assay with CCRF-CEM, 12.9 µM (inactive); in the assay with HCC 2998, > 100 µM (inactive). Moreover, the GI50 was 29.4 µM (inactive) in the assay with OVCAR-4; > 100 µM (inactive) with SNB-75; 30.9 µM (inactive) in the assay with UACC-62; > 100 µM (inactive) in the assay on TK-10; > 100 µM (inactive) with SK-OV-3; > 100 µM (inactive) with OVCAR-3. Moreover, the GI50 in the assay with U-251 was > 100 µM (inactive).

As for `O=c1[nH]c(=O)n(C2CC(O)C(O)C(CO)O2)cc1F` (centres undefined), the GI50 with SNB-19, in the assay with OVCAR-8, with MOLT-4, with SN12C, with UACC-257 and in the assay with NCI-H23 was > 100 µM (inactive) throughout. In addition, the GI50 in the assay on NCI-H460, in the assay with SF-268, with HOP-92, in the assay with EKVX, in the assay with SF-295 and in the assay on CCRF-CEM was > 100 µM (inactive) each time. Besides, the GI50 with HCC 2998, in the assay on OVCAR-4, in the assay on SNB-75, in the assay with UACC-62, in the assay on TK-10 and with SK-OV-3 was > 100 µM (inactive) throughout. Besides, the GI50 in the assay with OVCAR-3 and in the assay with U-251 was > 100 µM (inactive) in each case.

For the compound `COc1ccc(C2CC(c3c(O)ccc4ccccc34)=NN2)cc1OC` (centres undefined), the GI50 in the assay with SNB-19 was 2.1 µM (inactive); in the assay with OVCAR-8, 2.98 µM (inactive); in the assay with MOLT-4, 2.24 µM (inactive); with SN12C, 4.32 µM (inactive); with UACC-257, 6.81 µM (inactive); in the assay with NCI-H23, 3.22 µM (inactive). The GI50 in the assay with NCI-H460 is 2.92 µM (inactive); in the assay on SF-268 it was 2.87 µM (inactive); in the assay with HOP-92 it was 3.7 µM (inactive); in the assay with EKVX, 6.01 µM (inactive); in the assay with SF-295 it was 2.55 µM (inactive); in the assay on CCRF-CEM it was 4.85 µM (inactive). Besides, the GI50 was 2.22 µM (inactive) in the assay with HCC 2998; 6.03 µM (inactive) in the assay on OVCAR-4; 1.22 µM (inactive) in the assay with SNB-75; 3.29 µM (inactive) with UACC-62; 3.91 µM (inactive) in the assay on TK-10; 7.94 µM (inactive) in the assay with SK-OV-3. In addition, the GI50 in the assay on OVCAR-3 is 4.46 µM (inactive); in the assay with U-251, 2.7 µM (inactive).

As to `Cc1cccc(C(C)C)c1NC(=O)CC1Sc2ccccc2NC1=O` (centres undefined), the GI50 in the assay on SNB-19 is > 100 µM (inactive); with OVCAR-8 it was > 100 µM (inactive); in the assay on MOLT-4, 20.5 µM (inactive); in the assay on SN12C, > 100 µM (inactive); in the assay with UACC-257, > 100 µM (inactive); with NCI-H23 it was > 100 µM (inactive). In addition, the GI50 in the assay with NCI-H460 was > 100 µM (inactive); in the assay with SF-268, 63 µM (inactive); in the assay on HOP-92 it was 37.8 µM (inactive); in the assay on EKVX, > 100 µM (inactive); in the assay on SF-295 it was 40.2 µM (inactive); with CCRF-CEM, > 100 µM (inactive). Besides, the GI50 is > 100 µM (inactive) with HCC 2998; > 100 µM (inactive) with OVCAR-4; 60.3 µM (inactive) in the assay on SNB-75; 44.4 µM (inactive) with UACC-62; > 100 µM (inactive) in the assay with TK-10; > 100 µM (inactive) in the assay with SK-OV-3. The GI50 in the assay on OVCAR-3 and with U-251 was > 100 µM (inactive) each time.

Regarding `Cc1cc(=O)n2nc(CSc3nnc(S)s3)sc2n1`, the GI50 in the assay on SNB-19, with OVCAR-8, with MOLT-4, in the assay on SN12C, in the assay with UACC-257 and in the assay on NCI-H23 was > 100 µM (inactive) in each case. Besides, the GI50 in the assay on NCI-H460, in the assay on SF-268, in the assay on HOP-92, in the assay with EKVX, with SF-295 and in the assay on CCRF-CEM was > 100 µM (inactive) throughout. Also, the GI50 with HCC 2998, in the assay on OVCAR-4, in the assay with SNB-75, in the assay with UACC-62, with TK-10 and with SK-OV-3 was > 100 µM (inactive) each time. Besides, the GI50 with OVCAR-3 and in the assay on U-251 was > 100 µM (inactive) throughout.

With `O=C1C=C(Br)c2c(Br)sc(Br)c21`, the GI50 was 17.7 µM (inactive) in the assay on SNB-19; 3.9 µM (inactive) in the assay on OVCAR-8; 2.77 µM (inactive) with MOLT-4; 12.9 µM (inactive) in the assay on SN12C; 1.89 µM (inactive) with UACC-257; 10.6 µM (inactive) in the assay with NCI-H23. For the same compound, the GI50 is 19.6 µM (inactive) in the assay with NCI-H460; 18.5 µM (inactive) in the assay on SF-268; 3 µM (inactive) in the assay on HOP-92; 18 µM (inactive) in the assay on EKVX; 31.6 µM (inactive) in the assay on SF-295; 1.59 µM (inactive) in the assay on CCRF-CEM. Besides, the GI50 in the assay on HCC 2998 is 13.8 µM (inactive); in the assay with OVCAR-4, 18 µM (inactive); in the assay on SNB-75 it was 18.3 µM (inactive); with UACC-62, 14 µM (inactive); in the assay with TK-10, 6.87 µM (inactive); in the assay with SK-OV-3 it was 21.4 µM (inactive). The GI50 was 13.4 µM (inactive) with OVCAR-3 and 13.9 µM (inactive) in the assay with U-251.

As for `O=C(CCC1C(=O)NC(=S)NC1=O)c1ccc2ccccc2c1`, the GI50 in the assay on SNB-19, with OVCAR-8, in the assay on MOLT-4, in the assay with SN12C, with UACC-257 and in the assay on NCI-H23 was > 100 µM (inactive) each time. Besides, the GI50 in the assay with NCI-H460, with SF-268, in the assay on HOP-92, with EKVX, in the assay on SF-295 and with CCRF-CEM was > 100 µM (inactive) in each case. In addition, the GI50 with HCC 2998, in the assay with OVCAR-4, with SNB-75, in the assay with UACC-62, in the assay with TK-10 and in the assay on SK-OV-3 was > 100 µM (inactive) throughout. Moreover, the GI50 in the assay with OVCAR-3 and in the assay with U-251 was > 100 µM (inactive) each time.

Regarding `CC(C)(C)c1cc(O)ccc1O` [E319], the GI50 in the assay on SNB-19 was > 100 µM (inactive); in the assay with OVCAR-8 it was > 63.7 µM (inactive); with MOLT-4 it was 10.3 µM (inactive); with SN12C, > 100 µM (inactive); with UACC-257 it was 9.08 µM (inactive); in the assay on NCI-H23, > 100 µM (inactive). Besides, the GI50 in the assay on NCI-H460 is > 12.8 µM (inactive); in the assay on SF-268, > 18.7 µM (inactive); in the assay on HOP-92, > 67.5 µM (inactive); in the assay on EKVX it was > 100 µM (inactive); with SF-295 it was > 100 µM (inactive); with CCRF-CEM, 4.92 µM (inactive). Besides, the GI50 in the assay on HCC 2998 is > 10.5 µM (inactive); with OVCAR-4 it was > 56.4 µM (inactive); with SNB-75, 7.71 µM (inactive); in the assay with UACC-62 it was > 100 µM (inactive); in the assay on TK-10 it was 8.32 µM (inactive); with SK-OV-3, > 100 µM (inactive). The GI50 in the assay with OVCAR-3 was 43.6 µM (inactive); in the assay on U-251 it was 0.675 µM (active).
